According to publication PMC8704606, “The Artemiside-Artemisox-Artemisone-M1 Tetrad: Efficacies against Blood Stage P. falciparum Parasites, DMPK Properties, and the Case for Artemiside” (Pharmaceutics, 2021):
Like-named read-outs stand apart in the source and are kept apart here.

Columns and labels:
[1] = Cytotoxicity (LDH assay) against HepG2 cells; format: cell-based; settings: human, HepG2 cells (hepatocellular carcinoma)
Description: Cytotoxicity against mammalian hepatocellular carcinoma cells (HepG2 cells) was determined using the lactate dehydrogenase assay (LDH, Biovision Inc., Milpitas, CA, USA). […] Compound working solutions were prepared from 10 mM stock solutions (100% DMSO) in complete DMEM to a final DMSO (Sigma-Aldrich) conc. of <0.1% (vol/vol). […] Data analysis was performed using GraphPad Prism (version 6) software.

[2] = Pharmacokinetics and metabolism after iv and po administration; format: in vivo; settings: for half-life: mean ± SD, read-out: t½ (converted); for MRT last: read-out: MRT0-last; for AUC(0-t): up to 7 h
Description: The plasma concentration-time profiles of the parent compounds and metabolites after administration iv and po to male C57/BL6 mice are presented in Figure 2, Figure 3 and Figure 4. Artemiside was quantifiable up to 24 h in all mice dosed iv and up to 7 h po (lower limit of quantitation LLOQ = 1.6 ng/mL or 0.004 μM) (Figure 2). […] For both artemiside and artemisox, the metabolite artemisone was quantifiable up to 3 h in both the po and iv groups (Figure 2 and Figure 3). Thereby it is confirmed that artemiside is rapidly converted via artemisox into artemisone. Artemisone itself was quantifiable up to three hours post dose (Figure 4). The mean circulating concentrations for the compounds and their metabolites are presented in Table S3a–f in the Supplementary Material 1. The metabolite M1 was also detected upon administration of artemiside, artemisox, and artemisone, but it was not quantified here; chromatograms indicating the presence of M1 are illustrated in Figure S3a–c in the Supplementary Material 1. In addition, the plasma concentration-time curves for artemiside and its metabolites artemisone and M1 following iv and po dosing in the same murine model are presented and discussed in detail elsewhere (cf. Figure 4 in reference).
All work was conducted with prior approval of the animal ethics committee of the University of Cape Town in accordance with the South African National Standards for the Care and Use of Animals for Scientific Purposes and guidelines from the South African Department of Health. The requirements and methods for the pharmacokinetics in vivo involving po and iv drug administration, sample extraction, analyses of samples by LC-MS/MS, and data analyses are described elsewhere. For the animal experiments and formulations, the compounds were dissolved in a 10:60:30 mixture of N,N-dimethylacetamide-polypropylene glycol-polyethylene glycol for intravenous dosing (iv) at 5 mg/kg. For the oral dose (po), compounds were individually dosed as a suspension in 0.5% (w/v) hydroxypropylmethylcellulose in water with 0.2% Tween80 at 50 mg/kg to male C57/BL6 mice (n = 3 for each group). For PK sampling, blood samples were collected at predetermined times (0.08, 0.25, 0.5, 1, 3, 5, 7, and 24 h) for both po and iv dosing via tail bleeding into heparinized tubes, centrifuged, and the plasma samples were stored at −80 °C until extraction. For preparation of samples, the frozen plasma samples were thawed and 15 μL was extracted by liquid–liquid extraction using a universal buffer (pH8) containing 10 ng/mL of the internal standard and ethyl acetate, and the extract was vortexed and centrifuged. Calibration standards and quality controls were extracted following the same procedure. Supernatants were dried down, reconstituted, and injected onto the column for LC-MS/MS analysis using an AB SCIEX 5500 QTRAP instrument coupled to an Agilent 1260 HPLC detection system as previously described.

[3] = tested on: asexual blood stages of Pf W2 (drug resistant); design: method as in PMID 29866868, PMID 31998692; settings: cited from earlier work
[4] = tested on: P. falciparum asexual blood stage artemisinin-resistant clone PL08-009 (5C) carrying the PfKI3 C580Y mutation; design: method as in ref S3; settings: ref S3, cited from earlier work
P. berghei sporozoites = settings: cited from earlier work
[5] = tested on: CQ-sensitive P. berghei N strain; settings: cited from earlier work
[6] = tested on: type II tachyzoites (PRU-Luc-GFP); settings: sc 10 mg/kg/d for 8 days; cited from earlier work
[7] = cited from earlier work
[8] = tested on: Chinese hamster ovary (CHO) cells; design: method as in PMID 29866868, PMID 31998692; settings: other cell lines including CHO cells; read-out: EC50 cytotoxicity; cited from earlier work
HepG2 = settings: ref S3, cited from earlier work
[9] = male, C57/BL6, mouse, plasma, iv 5 mg/kg, parent drug
[10] = male, C57/BL6, mouse, plasma, po 50 mg/kg, parent drug

C[C@H]1[C@H](N2CCSCC2)O[C@@H]2O[C@@]3(C)CC[C@H]4[C@H](C)CC[C@@H]1[C@@]24OO3 [Artemiside 5, Artemiside]
IC50 at 24 h [1]: > 50000 nM | Mean po circulating concentration ([2]; 24 h after po 50 mg/kg artemiside 5): blq | quantifiable/detectable in plasma up to ([2]; iv group, parent drug, LLOQ 1.6 ng/mL or 0.004 μM for artemiside): up to 24 h | concentration at 0.08 h ([2]; male, C57/BL6, mouse, plasma, iv, 5 mg/kg, 0.08 h after iv 5 mg/kg artemiside 5, read-out: Mean iv circulating concentration): 6240 nM | concentration at 0.25 h ([2]; male, C57/BL6, mouse, plasma, iv, 5 mg/kg, 0.25 h after iv 5 mg/kg artemiside 5, read-out: Mean iv circulating concentration): 3560 nM | concentration at 0.5 h ([2]; male, C57/BL6, mouse, plasma, iv, 5 mg/kg, 0.5 h after iv 5 mg/kg artemiside 5, read-out: Mean iv circulating concentration): 1710 nM | concentration at 1 h ([2]; male, C57/BL6, mouse, plasma, iv, 5 mg/kg, 1 h after iv 5 mg/kg artemiside 5, read-out: Mean iv circulating concentration): 930 nM | concentration at 3 h ([2]; male, C57/BL6, mouse, plasma, iv, 5 mg/kg, 3 h after iv 5 mg/kg artemiside 5, read-out: Mean iv circulating concentration): 180 nM | concentration at 5 h ([2]; male, C57/BL6, mouse, plasma, iv, 5 mg/kg, 5 h after iv 5 mg/kg artemiside 5, read-out: Mean iv circulating concentration): 86 nM | concentration at 7 h ([2]; male, C57/BL6, mouse, plasma, iv, 5 mg/kg, 7 h after iv 5 mg/kg artemiside 5, read-out: Mean iv circulating concentration): 37 nM | concentration at 24 h ([2]; male, C57/BL6, mouse, plasma, iv, 5 mg/kg, 24 h after iv 5 mg/kg artemiside 5, read-out: Mean iv circulating concentration): 8 nM | half-life ([2]; male, C57/BL6, mouse, plasma, iv, 5 mg/kg, iv 5 mg/kg, parent drug): 1.2 ± 0.1 h | concentration at 0.08 h ([2]; male, C57/BL6, mouse, plasma, po, 50 mg/kg, 0.08 h after po 50 mg/kg artemiside 5, read-out: Mean po circulating concentration): 85 nM | concentration at 0.25 h ([2]; male, C57/BL6, mouse, plasma, po, 50 mg/kg, 0.25 h after po 50 mg/kg artemiside 5, read-out: Mean po circulating concentration): 109 nM | concentration at 0.5 h ([2]; male, C57/BL6, mouse, plasma, po, 50 mg/kg, 0.5 h after po 50 mg/kg artemiside 5, read-out: Mean po circulating concentration): 135 nM | concentration at 1 h ([2]; male, C57/BL6, mouse, plasma, po, 50 mg/kg, 1 h after po 50 mg/kg artemiside 5, read-out: Mean po circulating concentration): 119 nM | concentration at 3 h ([2]; male, C57/BL6, mouse, plasma, po, 50 mg/kg, 3 h after po 50 mg/kg artemiside 5, read-out: Mean po circulating concentration): 58 nM | concentration at 5 h ([2]; male, C57/BL6, mouse, plasma, po, 50 mg/kg, 5 h after po 50 mg/kg artemiside 5, read-out: Mean po circulating concentration): 12 nM | concentration at 7 h ([2]; male, C57/BL6, mouse, plasma, po, 50 mg/kg, 7 h after po 50 mg/kg artemiside 5, read-out: Mean po circulating concentration): 6 nM | half-life ([2]; male, C57/BL6, mouse, plasma, po, 50 mg/kg, po 50 mg/kg, parent drug): 1.4 ± 0.04 h | clearance ([2]; male, C57/BL6, mouse, plasma, iv 5 mg/kg): 58.3 mL/min/kg | AUC(0-inf) [2, 9]: 3.9 ± 0.4 µM·h | MRT last ([2]; male, C57/BL6, mouse, plasma, iv 5 mg/kg, parent drug, 0-last up to 7 h): 1 ± 0.1 h | AUC(0-t) [2, 9]: 3.8 ± 0.5 µM·h | Vd ([2]; male, C57/BL6, mouse, plasma, iv 5 mg/kg, read-out: Vss): 4.1 ± 0.5 L/kg | Cmax [2, 10]: 130 ± 10 nM | MRT last [2, 10]: 1.9 ± 0.1 h | AUC(0-t) [2, 10]: 0.36 ± 0.06 µM·h | MAT (mean absorption time = MRTpo–MRTiv) ([2]; po 50 mg/kg): 0.92 ± 0.20 h | quantifiable/detectable in plasma up to ([2]; po group, parent drug): up to 7 h | IC50 ([3]; asexual blood stage Pf W2, multidrug resistant, SYBR Green I, ± SEM): 1.75 ± 0.27 nM | RI = IC50 W2/IC50 NF54 [3]: 1.58 | IC50 ([4]; 36 h life cycle, PfKI3 C580Y): 0.29 nM | IC90 ([4]; 36 h life cycle, PfKI3 C580Y): 0.43 nM | RI = IC50 for PL08-09 (5C)/IC50 for W2 [4]: 0.1 | Maximum inhibition % P. berghei sporozoites (P. berghei sporozoites; at 5 µM, ref S3): 99.05±1.34% | IC50 (P. berghei sporozoites; luciferase-expressing P. berghei ANKA GFP-Luc-SMcon sporozoites in HepG2 cells, 48 h, ± SD, ref S3 (7)): 81.3 nM | P. berghei ED90 po ([5]; Peters four-day test, mice, oral daily day 0-3, ref S4 (24)): 1.9 mg/kg | P. berghei ED90 sc ([5]; Peters four-day test, mice, subcutaneous daily day 0-3, ref S4 (24)): 0.51 mg/kg | P. berghei artesunate index sc (ED90 artesunate/ED90 compound) ([5]; ref S4): 14.1 | mice surviving the infection, acute phase [6]: 60% | neurotoxicity in vivo, effects observed ([7]; 10 mg/kg/d for 14 days by gavage in sesame oil): no effects were observed | neurotoxicity in vivo, effects observed ([7]; 50 mg/kg/d for 14 days by gavage in sesame oil): neurotoxic sequelae including body weight loss, reduced motility, uncoordinated gait, and piloerection | EC50 [8]: > 241000 nM | EC50 (HepG2; read-out: Cytotoxicity EC50 HepG2): > 25000 nM | SI = EC50 HepG2/IC50 P. berghei sporozoites (HepG2): > 308
